Patent US12404279B2, “Deubiquitinase inhibitors and methods of use thereof” (Molecure S.A., priority 2021, dated 2025)
Where a name gives a salt, the structure may show the parent alone.

Target: full-length USP7 (Homo sapiens (Human), UniProt Q93009)
Assay: Enzymatic assay to determine IC50 of USP7 inhibitors (Ubiquitin-Rhodamine 110 cleavage)
Format: biochemical
Settings: 0.5 nM USP7, 0.5 μM Ubiquitin-Rhodamine 110, 45 min at 37° C.
Method in brief: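 Full-length USP7 (0.5 nM) in 50 mM HEPES pH 7.5, 150 mM NaCl, 1 mM DTT, 1 mg/ml BSA, 0.05% Tween20 was preincubated 15 min with DTT at room temperature before compound addition.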

Sequence of full-length USP7 (Q93009 whole entry): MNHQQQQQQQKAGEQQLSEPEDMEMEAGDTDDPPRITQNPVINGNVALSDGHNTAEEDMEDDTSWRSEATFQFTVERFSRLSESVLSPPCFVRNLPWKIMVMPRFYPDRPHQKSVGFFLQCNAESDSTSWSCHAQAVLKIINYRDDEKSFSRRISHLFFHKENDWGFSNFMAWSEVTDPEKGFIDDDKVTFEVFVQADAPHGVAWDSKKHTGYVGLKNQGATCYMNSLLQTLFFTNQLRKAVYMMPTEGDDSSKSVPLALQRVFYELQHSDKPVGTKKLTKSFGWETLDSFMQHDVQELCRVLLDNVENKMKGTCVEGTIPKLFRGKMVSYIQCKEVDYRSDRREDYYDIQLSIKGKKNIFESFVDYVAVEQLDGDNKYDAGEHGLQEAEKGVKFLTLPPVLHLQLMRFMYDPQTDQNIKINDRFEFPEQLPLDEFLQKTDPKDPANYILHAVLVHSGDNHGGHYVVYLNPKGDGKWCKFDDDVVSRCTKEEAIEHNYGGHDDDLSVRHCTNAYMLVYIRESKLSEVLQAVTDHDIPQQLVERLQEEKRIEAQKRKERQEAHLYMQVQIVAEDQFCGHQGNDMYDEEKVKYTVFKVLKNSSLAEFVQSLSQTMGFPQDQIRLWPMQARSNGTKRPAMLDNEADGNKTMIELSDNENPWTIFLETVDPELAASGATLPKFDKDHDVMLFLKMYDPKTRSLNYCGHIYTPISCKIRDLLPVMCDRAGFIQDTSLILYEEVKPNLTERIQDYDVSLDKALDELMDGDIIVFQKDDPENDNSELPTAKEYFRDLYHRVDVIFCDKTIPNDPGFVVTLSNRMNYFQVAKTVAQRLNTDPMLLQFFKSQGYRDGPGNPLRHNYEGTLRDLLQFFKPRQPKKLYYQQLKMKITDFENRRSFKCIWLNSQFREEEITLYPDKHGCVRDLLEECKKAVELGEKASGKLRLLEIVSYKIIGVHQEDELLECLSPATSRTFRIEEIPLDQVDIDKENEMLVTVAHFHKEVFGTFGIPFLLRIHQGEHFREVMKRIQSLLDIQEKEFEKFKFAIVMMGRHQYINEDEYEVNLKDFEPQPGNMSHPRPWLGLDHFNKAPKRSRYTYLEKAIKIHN

Row | IC50 | SMILES
1 | 1 to 10 µM | CN[C@H]1CCCN(C(=O)c2c(C)cc(C(F)(F)F)nc2-c2ccnc3cc(CN4C(=O)C5C(C4=O)C5(C)C)sc23)C1 (stereo partly drawn) [Example 144, 6,6-dimethyl-3-((7-(4-methyl-3-((S)-3-(methylamino)piperidine-1-carbonyl)-6-(trifluoromethyl)pyridin-2-yl)thieno[3,2-b]pyridin-2-yl)methyl)-3-azabicyclo[3.1.0]hexane-2,4-dione trihydrochloride]
2 | < 0.5 µM | Cc1cc(Cl)cc(-c2ccnc3cc(CN4C(=O)C5C(C4=O)C5(C)C)sc23)c1NC(=O)C1CCNCC1 (stereo not drawn) [Example 118, N-(4-chloro-2-(2-((6,6-dimethyl-2,4-dioxo-3-azabicyclo[3.1.0]hexan-3-yl)methyl)thieno[3,2-b]pyridin-7-yl)-6-methylphenyl)piperidine-4-carboxamide 2,2,2-trifluoroacetate]
3 | < 0.5 µM | Cc1nc(C#N)cc(-c2ccnc3cc(CN4C(=O)C5C(C4=O)C5(C)C)sc23)c1C(=O)N1CC[C@H](N)C1 (stereo partly drawn) [Example 15, 5-((S)-3-aminopyrrolidine-1-carbonyl)-4-(2-((6,6-dimethyl-2,4-dioxo-3-azabicyclo[3.1.0]hexan-3-yl)methyl)thieno[3,2-b]pyridin-7-yl)-6-methylpicolinonitrile 2,2,2-trifluoroacetate]
4 | < 0.5 µM | Cc1cc(C(F)(F)F)nc(-c2ccnc3cc(CN4C(=O)C5C(C4=O)C5(C)C)sc23)c1C(=O)N1[C@@H](C)CNC[C@@H]1C (stereo partly drawn) [Example 141, 3-((7-(3-((2S,6S)-2,6-dimethylpiperazine-1-carbonyl)-4-methyl-6-(trifluoromethyl)pyridin-2-yl)thieno[3,2-b]pyridin-2-yl)methyl)-6,6-dimethyl-3-azabicyclo[3.1.0]hexane-2,4-dione 2,2,2-trifluoroacetate]
5 | < 0.5 µM | Cc1cc(C(F)(F)F)nc(-c2ccnc3cc(CN4C(=O)C5C(C4=O)C5(C)C)sc23)c1CN1CC[C@@H]2CNC[C@@H]21 (stereo partly drawn) [Example 153, 3-((7-(3-(((3aR,6aR)-hexahydropyrrolo[3,4-b]pyrrol-1(2H)-yl)methyl)-4-methyl-6-(trifluoromethyl)pyridin-2-yl)thieno[3,2-b]pyridin-2-yl)methyl)-6,6-dimethyl-3-azabicyclo[3.1.0]hexane-2,4-dione trihydrochloride]
6 | 1 to 10 µM | Cc1cc(C)c(NC(=O)C2CNC2)c(-c2ccnc3cc(CN4C(=O)C5C(C4=O)C5(C)C)sc23)n1 (stereo not drawn) [Example 133, N-(2-(2-((6,6-dimethyl-2,4-dioxo-3-azabicyclo[3.1.0]hexan-3-yl)methyl)thieno[3,2-b]pyridin-7-yl)-4,6-dimethylpyridin-3-yl)azetidine-3-carboxamide 2,2,2-trifluoroacetate]
7 | < 0.5 µM | Cc1cc(C(F)(F)F)nc(-c2ccnc3cc(CN4C(=O)C5C(C4=O)C5(C)C)sc23)c1C(=O)N1CC[C@H](F)C1 (stereo partly drawn) [Example 114, 3-((7-(3-((S)-3-fluoropyrrolidine-1-carbonyl)-4-methyl-6-(trifluoromethyl)pyridin-2-yl)thieno[3,2-b]pyridin-2-yl)methyl)-6,6-dimethyl-3-azabicyclo[3.1.0]hexane-2,4-dione hydrochloride]
8 | 1 to 10 µM | Cc1nc(C(F)(F)F)cc(-c2ccnc3cc(CN4C(=O)C5C(C4=O)C5(C)C)sc23)c1NC(=O)C1CCNCC1 (stereo not drawn) [Example 87, N-(4-(2-((6,6-dimethyl-2,4-dioxo-3-azabicyclo[3.1.0]hexan-3-yl)methyl)thieno[3,2-b]pyridin-7-yl)-2-methyl-6-(trifluoromethyl)pyridin-3-yl)piperidine-4-carboxamide hydrochloride]
9 | < 0.5 µM | Cc1cc(C)c(NC2CCNC2)c(-c2ccnc3cc(CN4C(=O)C5C(C4=O)C5(C)C)sc23)n1 (racemic) [Example 124, 3-((7-(4,6-dimethyl-3-(pyrrolidin-3-ylamino)pyridin-2-yl)thieno[3,2-b]pyridin-2-yl)methyl)-6,6-dimethyl-3-azabicyclo[3.1.0]hexane-2,4-dione 2,2,2-trifluoroacetate]
10 | < 0.5 µM | Cc1cc(C(F)(F)F)nc(-c2ccnc3cc(CN4C(=O)C5C(C4=O)C5(C)C)sc23)c1C(=O)N1C[C@@H](C)[C@H](N)C1 (stereo partly drawn) [Example 107, 3-((7-(3-((3S,4R)-3-amino-4-methylpyrrolidine-1-carbonyl)-4-methyl-6-(trifluoromethyl)pyridin-2-yl)thieno[3,2-b]pyridin-2-yl)methyl)-6,6-dimethyl-3-azabicyclo[3.1.0]hexane-2,4-dione hydrochloride]
11 | < 0.5 µM | Cc1cc(Cl)cc(-c2ccnc3cc(CC4NCCNC4=O)sc23)c1O[C@H]1CCCNC1 (stereo partly drawn) [Example 178, 3-((7-(5-chloro-3-methyl-2-(((S)-piperidin-3-yl)oxy)phenyl)thieno[3,2-b]pyridin-2-yl)methyl)piperazin-2-one hydrochloride]

Same assay, conditions: at 1 μM of the test compound; given where IC50 not determined yet; read-out: percent value of inhibition of USP7 activity

Row | inhibition at 1 µM | SMILES
12 | < 20% | Cc1cc(C#N)nc(-c2ccnc3cc(CN4C(=O)C5C(C4=O)C5(C)C)sc23)c1C(=O)NC1CC(F)(F)C1 (stereo not drawn) [Example 57, 6-cyano-N-(3,3-difluorocyclobutyl)-2-(2-((6,6-dimethyl-2,4-dioxo-3-azabicyclo[3.1.0]hexan-3-yl)methyl)thieno[3,2-b]pyridin-7-yl)-4-methylnicotinamide hydrochloride]
13 | < 20% | CCOC(=O)c1c(C(F)(F)F)c(C)n(C[C@@H]2CNCCO2)c1-c1ccnc2cc(CN3C(=O)C4C(C3=O)C4(C)C)sc12 (stereo partly drawn) [Example 155, ethyl 2-(2-((6,6-dimethyl-2,4-dioxo-3-azabicyclo[3.1.0]hexan-3-yl)methyl)thieno[3,2-b]pyridin-7-yl)-5-methyl-1-(((S)-morpholin-2-yl)methyl)-4-(trifluoromethyl)-1H-pyrrole-3-carboxylate hydrochloride]

Same assay, conditions: read-out: percent value of inhibition of USP7 activity

Row | SMILES | inhibition at 1 µM
14 | CC1(C)C2C(=O)N(Cc3cc4nccc(-c5cc(C(F)(F)F)n(CC6CNCCO6)n5)c4s3)C(=O)C21 (stereo not drawn) [Example 6, 6,6-dimethyl-3-((7-(1-(morpholin-2-ylmethyl)-5-(trifluoromethyl)-1H-pyrazol-3-yl)thieno[3,2-b]pyridin-2-yl)methyl)-3-azabicyclo[3.1.0]hexane-2,4-dione 2,2,2-trifluoroacetate] | < 20%
15 | Cc1nc(C(F)(F)F)cc(-c2ccnc3cc(CN4C(=O)C5C(C4=O)C5(C)C)sc23)c1NC(=O)CN1CC(F)(F)C1 (stereo not drawn) [Example 32, 2-(3,3-difluoroazetidin-1-yl)-N-(4-(2-((6,6-dimethyl-2,4-dioxo-3-azabicyclo[3.1.0]hexan-3-yl)methyl)thieno[3,2-b]pyridin-7-yl)-2-methyl-6-(trifluoromethyl)pyridin-3-yl)acetamide 2,2,2-trifluoroacetate] | < 20%
